In patent US6861448B2, “NAD synthetase inhibitors and uses thereof” (priority 1998, dated 2005):

Molecular target: NAD synthetase (Bacillus subtilis, UniProt P08164)
Experiment: NAD synthetase coupled enzyme assay
Type: biochemical
Settings: NAD synthetase 2.0 μg/mL; 0.1 mM NaAD; 0.2 mM ATP; pH 8.5
From the text: This Example illustrates the NAD synthetase enzyme inhibiting activity of some compounds of the present invention. [drawing 48] The coupled assay—production of NAD was monitored through conversion to NADH by alcohol dehydrogenase. [NADH] was monitored by 2 parallel methods: the change in absorbance at 340 nm, and fluorescence at 460 nm (excitation 320 nm). […] Controls were included for determining inhibitor background, precipitation, and ADH inhibition.

NAD synthetase, sequence (P08164 whole entry): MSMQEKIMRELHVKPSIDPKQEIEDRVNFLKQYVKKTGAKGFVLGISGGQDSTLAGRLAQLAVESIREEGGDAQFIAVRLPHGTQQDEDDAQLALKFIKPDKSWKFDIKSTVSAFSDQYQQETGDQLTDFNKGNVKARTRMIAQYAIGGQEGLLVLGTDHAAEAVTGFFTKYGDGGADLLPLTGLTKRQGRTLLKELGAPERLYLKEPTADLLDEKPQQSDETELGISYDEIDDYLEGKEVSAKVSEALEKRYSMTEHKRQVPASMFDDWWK

Structure (SMILES) | IC50
CC(=O)Nc1ccc(C(=O)Oc2ccc(OCCCCCCCCOC(=O)C(Cc3ccccc3)[N+](C)(C)C)cc2)cc1 (centres unmarked) [Compound 1482] | 26.2 µM
C[N+](C)(C)c1ccc(CC(=O)NCCCCCCCCOc2ccc(OC(=O)c3cccc(Cl)c3)cc2)cc1 [Compound 1623] | 33.9 µM
CC[N+]1([C@@H](Cc2ccccc2)C(=O)NCCCCCCCCOc2ccc(OCc3ccccc3)cc2)CCCC1 [Compound 1501] | 38.2 µM
CCC[N+]1([C@@H](Cc2ccccc2)C(=O)OCCCCCCCCOc2ccc(OCc3ccccc3)cc2)CCCC1 [Compound 1443] | 27.9 µM
C[N+](C)(C)c1ccc(CC(=O)OCCCCCCCCCCCOc2ccc(OCc3ccccc3)cc2)cc1 [Compound 1323] | 48.2 µM
C[N+](C)(C)C(Cc1ccccc1)C(=O)NCCCCCCCCOc1ccc(OC(=O)c2c(Cl)cc(Cl)cc2Cl)cc1 (centres unmarked) [Compound 1616] | 38.5 µM
C[N+](C)(C)c1ccc(CC(=O)OCCCCCCCCOc2ccc(OCc3cccc(Cl)c3)cc2)cc1 [Compound 1397] | 16.9 µM
C[n+]1cccc(C(=O)NCCCCCCCCOc2ccc(OC(=O)c3ccc(Cl)cc3)cc2)c1 [Compound 1653] | 19.5 µM
C[N+](C)(C)[C@@H](Cc1ccccc1)C(=O)OCCCCCCCCOc1ccc2oc(-c3ccccc3)cc(=O)c2c1 [Compound 1371] | 19.1 µM
C[N+](C)(C)c1ccc(CC(=O)NCCCCCCCCOc2ccc(OC(=O)c3cccc(Cl)c3Cl)cc2)cc1 [Compound 1632] | 18.5 µM
CC(C)Oc1ccc(C(=O)Oc2ccc(OCCCCCCCCOC(=O)C(Cc3ccccc3)[N+](C)(C)C)cc2)cc1 (centres unmarked) [Compound 1477] | 14 µM
N=C(N)N[C@@H](Cc1ccccc1)C(=O)NCCCCCCCCOc1ccc(OCc2ccccc2)cc1 [Compound 1681] | 12.9 µM
C[n+]1cccc(C(=O)NCCCCCCCCOc2ccc(OCc3cccc(Cl)c3)cc2)c1 [Compound 1422] | 27.9 µM
C[N+](C)(C)C(Cc1ccccc1)C(=O)NCCCCCCCCOc1ccc(OC(=O)c2cc(Cl)ccc2Cl)cc1 (centres unmarked) [Compound 1605] | 21 µM
C[N+](C)(C)C(Cc1ccccc1)C(=O)OCCCCCCCCOc1ccc(OC(=O)c2ccc(C#N)cc2)cc1 (centres unmarked) [Compound 1479] | 18.6 µM
COc1cccc(COc2ccc(OCCCCCCCCOC(=O)C(Cc3ccccc3)[N+](C)(C)C)cc2)c1 (centres unmarked) [Compound 1388] | 14.5 µM
CC(C)Oc1ccc(C(=O)Oc2ccc(OCCCCCCCCNC(=O)Cc3ccc([N+](C)(C)C)cc3)cc2)cc1 [Compound 1629] | 21.1 µM
C[N+](C)(C)c1ccc(CC(=O)NCCCCCCCCOc2ccc(OC(=O)c3c(Cl)cc(Cl)cc3Cl)cc2)cc1 [Compound 1645] | 18.1 µM
C[N+](C)(C)C(Cc1ccccc1)C(=O)OCCCCCCCCOc1ccc(OC(=O)c2ccccc2)cc1 (centres unmarked) [Compound 1431] | 18.2 µM
C[N+](C)(C)C(Cc1ccccc1)C(=O)OCCCCCCCCOc1ccc(OCc2ccccc2)cc1 (centres unmarked) [Compound 1338] | 23 µM
C[N+](C)(C)C(Cc1ccccc1)C(=O)NCCCCCCCCOc1ccc(OC(=O)c2cc(Cl)cc(Cl)c2)cc1 (centres unmarked) [Compound 1608] | 26.3 µM
C[n+]1cccc(C(=O)NCCCCCCCCOc2ccc(OC(=O)c3cc(Cl)ccc3Cl)cc2)c1 [Compound 1663] | 18.4 µM
C[N+](C)(C)C(Cc1ccccc1)C(=O)NCCCCCCCCOc1ccc(OC(=O)c2cc(F)cc(F)c2)cc1 (centres unmarked) [Compound 1614] | 23.1 µM
N=C(N)N[C@@H](Cc1ccccc1)C(=O)NCCCCCCCCOc1ccc(OCc2ccccc2)cc1 [Compound 1682] | 17.6 µM
C[N+](C)(C)C(Cc1ccccc1)C(=O)NCCCCCCCCOc1ccc(OC(=O)c2c(Cl)cccc2Cl)cc1 (centres unmarked) [Compound 1606] | 39.1 µM

Structure (SMILES) | IC50
C[N+](C)(C)c1ccc(CC(=O)NCCCCCCCCOc2ccc(OC(=O)c3cc(Cl)ccc3Cl)cc2)cc1 [Compound 1634] | 21.2 µM
COC(=O)c1ccc(OCCCCCCCCOC(=O)Cc2ccc([N+](C)(C)C)cc2)cc1OCc1ccccc1 [Compound 1186] | 46.1 µM
C[N+]1([C@@H](Cc2ccccc2)C(=O)OCCCCCCCCOc2ccc(OCc3ccccc3)cc2)CCCC1 [Compound 1336] | 19.4 µM
C[N+](C)(C)C(Cc1ccccc1)C(=O)NCCCCCCCCOc1ccc(OC(=O)c2ccc(Cl)cc2Cl)cc1 (centres unmarked) [Compound 1604] | 21.1 µM
CN(C)[C@@H](Cc1ccccc1)C[N+](C)(C)CCCCCCCCOc1ccc(OCc2ccccc2)cc1 [Compound 1498] | 39.4 µM
C[N+](C)(C)c1ccc(CC(=O)OCCCCCCCOC(=O)c2ccc(OCc3ccccc3)cc2)cc1 [Compound 1359] | 42.2 µM
C[N+](C)(C)c1ccc(CC(=O)OCCCCCCCCOc2ccc(OCc3ccccc3Cl)cc2)cc1 [Compound 1396] | 15.1 µM
C[N+](C)(C)C(Cc1ccccc1)C(=O)OCCCCCCCCOc1ccc2c(c1)C(=O)CC(c1ccccc1)O2 (mixture of isomers) [Compound 1370] | 16.9 µM
C[N+](C)(C)[C@@H](Cc1c[nH]c2ccccc12)C(=O)OCCCCCCCCOc1ccc(OCc2ccccc2)cc1 [Compound 1491] | 19.9 µM
C[N+](C)(C)C(Cc1ccccc1)C(=O)NCCCCCCCCOc1ccc(OC(=O)c2cc(Cl)cc(Cl)c2Cl)cc1 (centres unmarked) [Compound 1615] | 22.3 µM
C[N+](C)(C)C(Cc1ccccc1)C(=O)NCCCCCCCCOc1ccc(OC(=O)c2ccc(F)cc2F)cc1 (centres unmarked) [Compound 1610] | 30.4 µM
C[N+](C)(C)C(Cc1ccccc1)C(=O)NCCCCCCCCOc1ccc(OC(=O)c2cccc(Cl)c2Cl)cc1 (centres unmarked) [Compound 1603] | 34.9 µM
C[N+](C)(C)C(Cc1ccccc1)C(=O)OCCCCCCCCOc1ccc(OC(=O)c2ccc(-n3ccnc3)cc2)cc1 (centres unmarked) [Compound 1486] | 37.8 µM
C[n+]1cccc(C(=O)NCCCCCCCCOc2ccc3c(c2)C(=O)CC(c2ccccc2)O3)c1 (centres unmarked) [Compound 1448] | 30.7 µM
C[N+](C)(C1CCOCC1)[C@@H](Cc1ccccc1)C(=O)OCCCCCCCCOc1ccc(OCc2ccccc2)cc1 [Compound 1358] | 46.6 µM
C[N+](C)(C)C(Cc1ccccc1)C(=O)NCCCCCCCCOc1ccc(OC(=O)c2cc(F)ccc2F)cc1 (centres unmarked) [Compound 1611] | 23.3 µM
CC(=O)Oc1ccc(C(=O)Oc2ccc(OCCCCCCCCNC(=O)C(Cc3ccccc3)[N+](C)(C)C)cc2)cc1 (centres unmarked) [Compound 1599] | 44 µM
C[N+](C)(C)C(Cc1ccccc1)C(=O)OCCCCCCCCOc1ccc(OC(=O)c2ccc(S(N)(=O)=O)cc2)cc1 (centres unmarked) [Compound 1485] | 34.8 µM
C[n+]1cccc(C(=O)NCCCCCCCCOc2ccc(OC(=O)c3c(Cl)cccc3Cl)cc2)c1 [Compound 1664] | 19.9 µM
C[N+](C)(C)C(Cc1ccccc1)C(=O)NCCCCCCCCOc1ccc(OC(=O)c2c(F)cc(F)cc2F)cc1 (centres unmarked) [Compound 1620] | 21.9 µM
C[N+](C)(C)c1ccc(CC(=O)NCCCCCCCCOc2ccc(OC(=O)c3c(Cl)cccc3Cl)cc2)cc1 [Compound 1635] | 35.1 µM
C[N+](C)(C)c1ccc(CC(=O)OCCCCCCCCOc2cccc(OCc3ccccc3)c2)cc1 [Compound 1169] | 36.2 µM
C[N+](C)(C)C(Cc1ccccc1)C(=O)OCCCCCCCCOc1ccc(OCc2ccccc2Cl)cc1 (centres unmarked) [Compound 1390] | 14.2 µM
CCC[N+]1([C@@H](Cc2ccccc2)C(=O)NCCCCCCCCOc2ccc(OCc3ccccc3)cc2)CCCC1 [Compound 1502] | 35.6 µM
C[N+](C)(C)C(Cc1ccccc1)C(=O)NCCCCCCCCOc1ccc(OC(=O)c2cc(F)c(F)cc2F)cc1 (centres unmarked) [Compound 1619] | 22.3 µM
